Like-named read-outs stand apart in the source and are kept apart here.
Assays:
nicotinic receptors = assay: Nicotinic channel receptor binding: [3H]-cystine binding to crude synaptic membranes from whole rat brain; details: 1.25 nM [3H-cystine], about 60 min, about 4° C.
Description: Nicotinic Channel Receptor Binding Protocol:
The activity of the compounds claimed herein at the nicotinic receptor can be accomplished by the following assay.
Binding of […] to nicotinic receptors was accomplished using crude synaptic membrane preparations from whole rat brain (Pabreza et al. Molecular Pharmacol., 1990, 39:9). Washed membranes were stored at about -80° C. prior to use. Frozen aliquots were slowly thawed and resuspended in 20 volumes of buffer (containing: […] NaCl, 5 mM KCl, 2 mM MgCl2, 2 mM Tris-Cl, ph 7.4 @4° C.). After centrifuging at 20,000×g for 15 minutes, the pellets were resuspended in about 30 volumes of buffer. Homogenate (containing about 125-150 ug protein) was added to tubes containing concentrations of test compound and [^3 H-cystine] (1.25 nM) in a final volume of 500 uL. Samples were incubated for about 60 minutes at about 4° C., then rapidly filtered through GF/B filters presoaked in 0.5% polyethylimine using 3×4 mL of ice cold buffer. The filters were counted.

[1] = target: T1, muscarinic receptors (M1-site, pirenzepine sensitive site) (Rattus norvegicus, UniProt P08482); assay: Inhibition of 3HPRZ (pirenzepine, [N-methyl-3H]) binding to rat cerebral cortex membranes; set-up: species or system male Wistar rats
T1 construct: from tissue; host or cells: cerebral cortex membranes of male Wistar rats
T1 sequence (P08482 1-460): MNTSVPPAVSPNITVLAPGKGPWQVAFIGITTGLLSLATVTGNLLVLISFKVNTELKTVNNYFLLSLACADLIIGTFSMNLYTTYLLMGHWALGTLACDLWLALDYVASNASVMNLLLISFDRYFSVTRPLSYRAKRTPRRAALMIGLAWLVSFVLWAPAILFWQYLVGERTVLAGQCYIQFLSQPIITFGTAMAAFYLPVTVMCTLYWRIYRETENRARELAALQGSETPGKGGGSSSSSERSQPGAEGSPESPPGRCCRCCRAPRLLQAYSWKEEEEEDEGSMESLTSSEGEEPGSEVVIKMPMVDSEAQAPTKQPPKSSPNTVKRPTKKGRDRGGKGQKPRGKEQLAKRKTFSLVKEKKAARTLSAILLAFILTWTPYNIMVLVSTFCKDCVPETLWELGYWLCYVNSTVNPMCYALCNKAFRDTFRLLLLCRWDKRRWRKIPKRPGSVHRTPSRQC
Description: Furthermore the pharmacological properties of the compounds of the invention can also be illustrated by determining their capability to inhibit ^3 HPRZ (pirenzepine, [N-methyl-^3 H]) binding to rat cerebral cortex membranes.
Pirenzepine binds selectively to subtype of muscarinic receptors. Historically the type is named the M1 -site, whereas pirenzepine sensitive site would be more appropriate.
(§1) All preparations are performed at 0-4° C. unless otherwise indicated. Fresh cortex (0.1-19) from male Wistar rats (150-200 g) is homogenized for 5-10 s in 10 mL 20 mM Hepes pH: 7.4, with an Ultra-Turrax homogenizer. The homogenizer is rinsed with 2×10 mL of buffer and the combined suspension centrifuged for 15 min. at 40,000×g. The pellet is washed three times with buffer. In each step the pellet is homogenized as before in 3×10 mL of buffer and centrifuged for 10 min. at 40,000×g.
The final pellet is homogenized in 20 MM Hepes pH: 7.4 (100 mL per g of original tissue) and used for binding assay. Aliquots of 0.5 mL is added 20 μL of test solution and 25 μL of ^3 HPRZ (1.0 nM, final conc.), mixed and incubated for 60 min. at 20° C. Non-specific binding is determined in triplicate using atropine (1.0 μg/mL, final conc.) as the test substance. After incubation samples are added 5 mL of ice-cold buffer and poured directly onto Whatman GF/C glass fiber filters under suction and immediately washed 2 times with 5 mL of ice-cold buffer.
The amount of radioactivity on the filters are determined by conventional liquid scintillation counting. Specific binding is total binding minus non-specific binding.
Test substances are dissolved in 10 mL water, at a concentration of 0.22 mg/mL. 25-75% inhibition of specific binding must be obtained before calculation of IC50.
The test value will be given as IC50 (the concentration (nM) of the test substance which inhibits the specific binding of ^3 HPRZ by 50%). IC50 =(applied test substance concentration) x(Cx /Co -Cx)nM where Co is specific binding in control assays and Cx is the specific binding in the test assay. (The calculations assume normal mass-action kinetics).

[2] = target: muscarinic acetylcholine receptors; assay: Inhibition of specific binding of 3H-Oxotremorine-M (3H-Oxo) to rat cortex membranes; set-up: species or system male Wistar rats; details: 1.0 nM 3H-Oxotremorine, 30 min, 25° C., pH 7.4
Description: The pharmacological properties of the compounds of the invention can be illustrated by determining their capability to inhibit the specific binding of ^3 H-Oxotremorine-M (^3 H-Oxo). Birdsdall N. J. M., Hulme E. C., and Burgen A. S. V. (1980). "The Character of Muscarinic Receptors in Different Regions of the Rat Brain". Proc. Roy. Soc. London (Series B) 207,1.
^3 H-Oxo labels muscarinic receptor in the CNS (with a preference for agonist domains of the receptors). Three different sites are labeled by ^3 H-Oxo. […] Using the present experimental conditions only the high and medium affinity sites are determined.
The inhibitory effects of compounds on ^3 H-oxo binding reflects the affinity for muscarinic acetylcholine receptors.
as §1, with “(0.1-1 g)” for “(0.1-19)”, “(150-250” for “(150-200”, “[…]” for “mM”, “10” for “2×10”, “2×10” for “3×10”
The final pellet is homogenized in 20 mM Hepes pH: 7.4 (100 mL per g of original tissue) and used for binding assay. Aliquots of 0.5 mL is added 25 μL of test solution and 25 μL of ^3 H-Oxotremorine (1.0 nM, final concentration) mixed and incubated for 30 min. at 25° C. Non-specific binding is determined in triplicate using arecoline (1 μg/mL, final concentration) as the test substance. After incubation samples are added 5 mL of ice-cold buffer and poured directly onto Whatman GF/C glass fiber filters under suction and immediately washed 2 times with 5 mL of ice-cold buffer. The amount of radioactivity on the filters are determined by conventional liquid scintillation counting. Specific binding is total binding minus non specific binding.
Test substances are dissolved in 10 mL water (if necessary heated on a steam-bath for less than 5 min.) at a concentration of 2.2 mg/mL. 25-75% inhibition of specific binding must be obtained before calculation of IC50. The test value will be given as IC50 (the concentration (nM) of the test substance which inhibits the specific binding of ^3 H-oxo by 50%). IC50 =(applied test substance concentration) x([…])nM where Co is specific binding in control assays and Cx is the specific binding in the test assay. (The calculations assume normal mass-action kinetics).

[3] = rat cerebral cortex, 1.0 nM 3HPRZ, 60 min, 20° C., pH 7.4, read-out: 3HPRZ IC50

Row | SMILES | Ki (nicotinic receptors) [nM] | IC50 [1, 3] [nM] | IC50 [2] [nM] | IC50 [1] [nM]
1 | CN(C)CCOc1cnccn1 [Compound 26, 2-(2-Dimethylaminoethoxy)pyrazine] | 130 | – | – | –
2 | C=CCSc1nccnc1O[C@@H]1CN2CCC[C@H]1C2 (relative stereo) [Compound 36, (±)-endo-2-(2-propenylthio)-3-(1-azabicyclo[3.2.1]octyl-6-oxy)pyrazine] | – | 5.8 | 0.34 | –
3 | Clc1nccnc1O[C@H]1CN2CCC[C@@H]1C2 (relative stereo) [Compound 19, 3-Chloro-2-[endo-(+,-)-6-(1-azabicyclo[3.2.1]octyloxy)]-pyrazine] | 2780 | – | – | –
4 | FC(F)(F)CSc1nccnc1O[C@@H]1CN2CCC[C@H]1C2 (relative stereo) [Compound 33, (±)-endo-2-(2,2,2,-Trifluoroethylthio)-3-(1-azabicyclo[3.2. 1]octyl-6-oxy)pyrazine] | – | 0.7 | 1.5 | –
5 | CCCSc1nccnc1O[C@@H]1CN2CCC[C@H]1C2 (relative stereo) [Compound 29, (±)-endo-2-Propylthio-3-(1-azabicyclo[3.2.1]octyl-6-oxy)pyrazine] | – | 0.68 | 1.7 | –
6 | CCCCSc1nccnc1OC1CN2CCC1CC2 (racemic) [Compound 6, (+/-)-3-Butylthio-2-(1-azabicyclo[2.2.2]octyl-3-oxy)pyrazine] | 5490 | – | – | –
7 | C/C=C/CSc1nccnc1O[C@@H]1CN2CCC[C@H]1C2 (relative stereo) [Compound 34, (±)-endo-2-(trans-2-Butenylthio)-3-(1-azabicyclo[3.2. 1]octyl-6-oxy)pyrazine] | – | 0.66 | 2 | –
8 | FC(F)(F)CSc1cncc(O[C@@H]2CN3CCC[C@H]2C3)n1 (relative stereo) [Compound 40, (±)-endo-2-(2.2.2-Trifluoroethylthio)-6-(1-azabicyclo[3.2. 1]octyl-6-oxy)pyrazine] | – | 17 | 60 | –
9 | CCCCSc1nccnc1OCCN(C)C [Compound 17] | 21400 | – | – | –
10 | FC(F)(F)Oc1ccc(CSc2nccnc2O[C@@H]2CN3CCC[C@H]2C3)cc1 (relative stereo) [Compound 38, (±)-endo-2-(4-Trifluoromethoxybenzylthio)-3-(1-azabicyclo[3.2. 1]octyl-6-oxy)pyrazine] | – | 3.3 | 6.2 | –
11 | CCCCCSc1nccnc1O[C@@H]1CN2CCC[C@H]1C2 (relative stereo) [Compound 30, (±)-endo-2-Pentylthio-3-(1-azabicyclo[3.2.1]octyl-6-oxy)pyrazine] | – | 0.82 | 4.4 | –
12 | CC(C)=CCCSc1nccnc1O[C@@H]1CN2CCC[C@H]1C2 (relative stereo) [Compound 43, (±)-endo-2-(4-Methyl-3-pentenylthio)-3-(1-azabicyclo[3.2. 1]octyl-6-oxy)pyrazine] | – | 2.2 | 8.1 | –
13 | FC(F)(F)CCCSc1nccnc1O[C@@H]1CN2CCC[C@H]1C2 (relative stereo) [Compound 35, (±)-endo-2-(4,4,4-Trifluorobutylthio)-3-(1-azabicyclo[3.2. 1]octyl-6-oxy)pyrazine] | – | 0.54 | 3.2 | –
14 | CCCCSc1nccnc1O[C@@H]1CN2CCC[C@H]1C2 (relative stereo) [Compound 24, 3-(1-butylthio)-2-[endo-(+,-)-6-(1-azabicyclo[3.2.1]octyloxy)]-pyrazine] | – | 0.54 | 2.2 | –
15 | C(=Cc1ccccc1)CSc1nccnc1O[C@@H]1CN2CCC[C@H]1C2 (relative stereo) [Compound 42, (±)-endo-2-(3-Phenyl-2-propenylthio)-3-(1-azabicyclo[3.2. 1]octyl-6-oxy)pyrazine] | – | 4.8 | 9.1 | –
16 | CCCSc1cncc(O[C@@H]2CN3CCC[C@H]2C3)n1 (relative stereo) [Compound 39, (±)-endo-2-Propylthio-6-(1-azabicyclo[3.2.1]octyl-6-oxy)pyrazine] | – | 80 | 10 | –
17 | COCCSc1nccnc1O[C@@H]1CN2CCC[C@H]1C2 (relative stereo) [Compound 41, (±)-endo-2-(2-Methoxyethylthio)-3-(1-azabicyclo[3.2. 1]octyl-6-oxy)pyrazine] | – | 1.6 | 3.2 | –
18 | CCCCSc1nccnc1OCC[N+](C)(C)C [Compound 18, 3-(1-Butylthio)-2-(2-(trimethylamino)ethoxy)pyrazine iodide] | 580 | – | – | –
19 | CCCCOc1nccnc1O[C@@H]1CN2CCC[C@H]1C2 (relative stereo) [Compound 23, 3-(1-butyloxy)-2-[endo-(+,-)-6-(1-azabicyclo[3.2.1]octyloxy)]-pyrazine] | – | – | 4.9 | 2.7
20 | CCSc1nccnc1O[C@@H]1CN2CCC[C@H]1C2 (relative stereo) [Compound 32, (±)-endo-2-Ethylthio-3-(1-azabicyclo[3.2.1]octyl-6-oxy)pyrazine] | – | 4 | 3.9 | –
21 | CC(C)CSc1nccnc1O[C@@H]1CN2CCC[C@H]1C2 (relative stereo) [Compound 31, (±)-endo-2-(2-Methylpropylthio)-3-(1-azabicyclo[3.2. 1]octyl-6-oxy)pyrazine] | – | 1.7 | 3.4 | –
22 | CC(C)CCSc1nccnc1O[C@@H]1CN2CCC[C@H]1C2 (relative stereo) [Compound 37, (±)-endo-2-(3-Methylbutylthio)-3-(1-azabicyclo[3.2. 1]octyl-6-oxy)pyrazine] | – | 0.76 | 1.3 | –
